Consider nine compounds from patent publication US4510136A (priority 1983, dated 1985).

Each structure is given as a SMILES string.

One data set deals with Uromyces phaseoli. As to the kind of experiment: Bean rust control on sprayed bean seedlings (Example 85). Format: in vivo. As for the experimental part:
This suspension was sprayed to the point of run-off on bean seedlings. The following day, the plants were inoculated with a spore suspension of the fungus Uromyces phaseoli, causal agent of bean rust, and incubated in a saturated humidity chamber at 20° for 24 hours and then in a greenhouse for 7 days. Disease ratings were then made. Treated plants from successful treatments had few or no rust pustules in contrast to untreated plants which were covered with rust pustules.

The next data set relates to 5 Phytophthora species. Format: cell-based. Particulars: 200.0 ppm in V-8 agar, 22° C., 6 days.
Data set [1] deals with Puccinia recondita var. tritici. As to the kind of experiment: Wheat leaf rust control on sprayed wheat seedlings (Example 79). It is filed as in vivo. Conditions: Puccinia recondita, 168 h; 100 ppm spray, day before inoculation. The gist of the method: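 Wheat seedlings were sprayed to run-off with 100 ppm compound suspended in water with 6% acetone and 250 ppm TREM 014 surfactant. Next day they were inoculated with Puccinia recondita var. tritici spores and held 24 h at saturated humidity, 20°. Rust pustules were rated after a further 7 days in a growth room.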

For the next data set, the system named is Erysiphe cichoracearum. Kind of data set: Cucumber powdery mildew control on sprayed cucumber seedlings (Example 80). It is filed as in vivo. Particulars: Golovinomyces cichoracearum, 168 h, 100 ppm spray, day before inoculation.
A further data set concerns Venturia inaequalis. As to the kind of experiment: Apple scab control on sprayed apple seedlings (Example 82). It is filed as in vivo. Particulars: Venturia inaequalis; for pest or weed control at 100 ppm: 100 ppm spray, day before inoculation.
Another data set deals with Helminthosporium maydis. As to the kind of experiment: Southern corn leaf blight control on sprayed corn seedlings (Example 83). Format: in vivo. Particulars: Bipolaris maydis, 192 h, 100 ppm spray, day before inoculation. The gist of the method:
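Compounds in 6% acetone at 100 ppm in water with 250 ppm TREM 014 surfactant, sprayed to run-off on corn seedlings; next day inoculated with spore suspension. 24 h at saturated humidity and 20°, then 7 days in growth room before disease rating; phytotoxicity scored as growth reduction.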

The next data set has as its system Cercospora arachidicola. Kind of data set: Peanut early leafspot control on sprayed peanut seedlings (Example 84). It is filed as in vivo. Particulars: Mycosphaerella arachidis, 360 h, read-out: % Control Peanut Easly Leafspot; for pest or weed control at 100 ppm: 100 ppm spray, day before inoculation.
The next data set has as its system Rhizoctonia solani. As to the kind of experiment: Rice sheath blight control on sprayed rice seedlings (Example 87). Format: in vivo. Conditions: Rhizoctonia solani, 168 h, 100 ppm spray, day before inoculation. The gist of the method:
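Rice seedlings were sprayed to run-off with 100 ppm compound suspended in water with 6% acetone and 250 ppm TREM 014 surfactant. They were inoculated next day with bran plus R. solani mycelium. Sheath blight was rated after 7 days in a growth room.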

The test system of another data set is Pyricularia oryzae. As to the kind of experiment: whole plant or invertebrate. It is filed as in vivo. Particulars: Pyricularia oryzae, 168 h, read-out: % Control of Rice Blast, 100 ppm spray, day before inoculation.
Another data set deals with Phytophthora infestans. Kind of data set: whole plant or invertebrate. It is filed as in vivo. Conditions: Phytophthora infestans, in Solanum lycopersicum, 168 h, read-out: % Control of Tomato Late Blight, 100 ppm spray, day before inoculation.
A further data set relates to cucumber seedlings. Kind of data set: Phytotoxicity on cucumber seedlings (Example 80). Format: in vivo. The arrangement: key: G = growth reduction; H = hormonal effects. Particulars: 100 ppm spray. The essentials:
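Cucumber seedlings sprayed to run-off with 100 ppm compound suspension (6% acetone, 250 ppm TREM 014 surfactant), inoculated next day with Erysiphe cichoracearum spores, then held 7 days in a growth room before disease rating. Phytotoxicity scored as growth reduction or hormonal effects.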

For a further data set, the system named is apple seedlings. As to the kind of experiment: Phytotoxicity on apple seedlings (Example 82). Format: in vivo. On the set-up: key: G = growth reduction; H = hormonal effects. As for the experimental part: These suspensions were sprayed to the point of run-off on apple seedlings. The following day, the plants were inoculated with a spore suspension of the fungus Venturia inaequalis, causal agent of apple scab, and incubated in a saturated humidity chamber at 20° for 24 hours and then in a growth room for an additional 10-12 days. Treated plants from successful treatments had fewer apple scab lesions when compared to untreated plants which were covered with scab lesions. Phytotoxicity expressed as growth reduction was observed on some of the plants in association with disease control.

The test system of the next data set is Monilinia fructicola. As to the kind of experiment: Stone fruit brown rot control on dipped canned peach halves (Example 86). Particulars: 120 h, 100 ppm dip, percent growth inhibition of colonies after five days. From the text:
Several compounds of the previous examples were again dissolved in acetone in an amount equal to 5% of the final volume and then suspended at a concentration of 100 ppm in purified water containing 700 ppm of the surfactant TREM 014 (polyhydric alcohol esters). Canned peach halves were dipped in this suspension for three minutes and then placed to air dry in sterile containers. Upon drying, the peach halves were inoculated with two pieces of Monilinia fructicola mycelium, causal agent of stone fruit brown rot, and incubated in the sterile containers for five days. At that time the radii of the colonies' growth were measured on each peach. […] Percent disease control (percent growth inhibition of colonies on treated peaches as compared to that of colonies on untreated peaches) is expressed in the table below.

For the next data set, the system named is Erysiphe graminis. Kind of data set: Barley powdery mildew control on sprayed barley seedlings (Example 81). Format: in vivo. Particulars: Blumeria graminis, 168 h; 100 ppm spray, day before inoculation. How it is done:
The compounds of the previous examples were again dissolved in acetone in an amount equal to 6% of the final volume and then suspended at a concentration of 100 ppm in purified water containing 250 ppm of the surfactant TREM 014 (polyhydric alcohol esters). These suspensions were sprayed to the point of run-off on barley seedlings. The following day, the plants were inoculated with a spore suspension of the fungus Erysiphe graminis, causal agent of barley powdery mildew, and incubated in growth room for 7 days. Disease ratings were then made. Treated plants from successful treatments had little or no powdery mildew in contrast to untreated plants which were covered with powdery mildew.

The test system of data set [2] is Pythium aphanadermatum. Kind of data set: Pythium control on cotton, seed coating (Example 91). Format: in vivo. Conditions: 168 h, 2 gm/kg seed. From the text: Several compounds of the previous examples were incorporated into a proprietary formulation and used to coat cotton seeds at a rate of 2 gm/kg seed. After being thoroughly coated, the seeds were allowed to air dry at room temperature. The cotton seeds were then planted into soil amended with the fungus Pythium aphanadermatum, sand, and corn meal at a rate sufficient to kill most untreated seeds. The seeds were held at room temperature for 1 week, after which time disease ratings were made.

Data set [3] has as its system Pythium aphanadermatum. As to the kind of experiment: Pythium control on corn, seed coating (Example 92). Particulars: 504 h, 2 gm/kg seed. Format: in vivo. How it is done: Several compounds of the previous examples were incorporated into a proprietary formulation and used to coat corn seeds at a rate of 2 gm/kg seed. After being thoroughly coated, the seeds were allowed to air dry at room temperature. The seeds were then planted into soil amended with a mixture of the fungus Pythium aphanadermatum, sand, and corn meal at a rate sufficient to kill most untreated seeds. The seeds were held at 49° F. for 2 weeks and then at 70° F. for 1 additional week. After this time disease ratings were made.

Take `C[Si](C)(Cn1cncn1)c1ccc(-c2ccccc2)cc1` [(1,1'-Biphenyl-4-yl)dimethyl(1H--1,2,4-triazol-1-ylmethyl)si] [(1,1'-Biphenyl-4-yl)dimethyl(1H-1,2,4-triazol-1-ylmethyl)silane]: in the data set with Uromyces phaseoli (80 ppm spray, day before inoculation), the “% Control Bean Rust” value turned out to be 100%. The “No. of 5 Phytophthora species controlled in vitro” value with 5 Phytophthora species was 0.

Take `C[Si](Cn1cncn1)(c1ccccc1)c1ccc(Cl)cc1Cl` (stereo not drawn) [(2,4-Dichlorophenyl)methyl(phenyl)(1H-1,2,4-triazol-1-ylmethyl)silane]: the pest or weed control at 100 ppm in data set [1] was found to be 100%; in the data set with Erysiphe cichoracearum, 100%; in the data set with Venturia inaequalis, 100%; with Helminthosporium maydis it was 0%; with Cercospora arachidicola, 100%; in the data set with Rhizoctonia solani, 0%. In addition, the pest or weed control at 100 ppm in the data set on Pyricularia oryzae and in the data set on Phytophthora infestans was 0% throughout. Moreover, in the data set with cucumber seedlings, the Phytotoxicity on cucumber result was “G”. In the data set on apple seedlings (100 ppm spray), the Phytotoxicity on apple result is “G”.

Take `C[Si](Cn1cncn1)(c1ccccc1)c1ccc(Cl)cc1` (stereo not drawn) [(4-Chlorophenyl)methyl(phenyl)(1H-1,2,4-triazol-1-ylmethyl)silane]: the pest or weed control at 100 ppm in data set [1] is 100%; in the data set on Erysiphe cichoracearum it was 100%; in the data set with Venturia inaequalis, 100%; with Helminthosporium maydis it was 90%; with Cercospora arachidicola, 100%; with Rhizoctonia solani, 90%. In addition, the pest or weed control at 100 ppm amounted to 100% with Pyricularia oryzae and 0% with Phytophthora infestans. In the data set with Uromyces phaseoli (applied at 16 ppm), the “% Control Bean Rust” value came out at 98%. For the same compound, in the data set on Monilinia fructicola, the inhibition of growth at 100 µg/mL was determined as 70%. For the same compound, the “No. of 5 Phytophthora species controlled in vitro” value with 5 Phytophthora species turned out to be 0. Further, the Phytotoxicity on cucumber entry in the data set with cucumber seedlings was “G”.

`C[Si](Cn1cncn1)(c1ccccc1)c1ccc(F)cc1` (stereo not drawn) [(4-Fluorophenyl)methyl(phenyl)(1H-1,2,4-triazol-1-ylmethyl)silane]: the pest or weed control at 100 ppm came to 90% in data set [1]; 100% with Erysiphe cichoracearum; 100% in the data set with Venturia inaequalis; 90% in the data set with Helminthosporium maydis; 100% in the data set with Cercospora arachidicola; 80% in the data set with Rhizoctonia solani. Moreover, the pest or weed control at 100 ppm with Pyricularia oryzae and in the data set with Phytophthora infestans was 0% each time. Moreover, in the data set with Uromyces phaseoli (applied at 16 ppm), the “% Control Bean Rust” value came to 100%. Moreover, the inhibition of growth at 100 µg/mL in the data set with Monilinia fructicola was determined as 90%. Further, in the data set on 5 Phytophthora species, the “No. of 5 Phytophthora species controlled in vitro” value is listed as 0.

Regarding `CCCC[Si](C)(Cn1cncn1)c1ccc(Cl)cc1Cl` (stereo not drawn) [Butyl(2,4-dichlorophenyl)methyl(1H-1,2,4-triazol-1-ylmethyl)silane], the pest or weed control at 100 ppm in data set [1] worked out at 100%; with Erysiphe cichoracearum, 100%; in the data set with Venturia inaequalis it was 100%; in the data set with Helminthosporium maydis, 100%; in the data set on Cercospora arachidicola it was 100%; in the data set with Rhizoctonia solani it was 50%. Besides, the pest or weed control at 100 ppm in the data set on Pyricularia oryzae and with Phytophthora infestans was 0% each time. Besides, the inhibition of growth at 100 µg/mL in the data set with Monilinia fructicola was 98%. Also, in the data set on 5 Phytophthora species, the “No. of 5 Phytophthora species controlled in vitro” value is recorded as 0. The Phytotoxicity on cucumber result with cucumber seedlings was “G”. Further, the Phytotoxicity on apple result with apple seedlings (100 ppm spray) is “G”.

Take `CCCC[Si](C)(Cn1cncn1)c1ccc(Cl)cc1` (stereo not drawn) [Butyl(4-chlorophenyl)methyl(1H-1,2,4-triazol-1-ylmethyl)silane]: the pest or weed control at 100 ppm is 80% in data set [1]; 100% with Erysiphe cichoracearum; 90% in the data set with Erysiphe graminis; 100% with Venturia inaequalis; 0% in the data set on Helminthosporium maydis; 0% with Cercospora arachidicola. Besides, the pest or weed control at 100 ppm in the data set with Rhizoctonia solani, in the data set on Pyricularia oryzae and with Phytophthora infestans was 0% each time. Moreover, the inhibition of growth at 100 µg/mL with Monilinia fructicola worked out at 98%. Further, the Phytotoxicity on cucumber result with cucumber seedlings was “G”. Further, in the data set with apple seedlings (100 ppm spray), the Phytotoxicity on apple entry was “G”.

For the compound `C[Si](C)(Cn1cncn1)c1ccccc1C(F)(F)F` [Dimethyl(1H-1,2,4-triazol-1-ylmethyl)(2-trifluoromethylphenyl)silane], the pest or weed control at 100 ppm was 100% in the data set on Erysiphe cichoracearum, 100% with Erysiphe graminis and 0% with Helminthosporium maydis. Besides, the figures for the pest or weed control at 400 ppm with Venturia inaequalis (applied at 400 ppm) and in the data set on Cercospora arachidicola (applied at 400 ppm) were 65% and 25%, respectively. The Phytotoxicity on apple result with apple seedlings (applied at 400 ppm) is “G”.

Take `Cc1ccc([Si](C)(C)Cn2cncn2)cc1` [Dimethyl(4-methylphenyl)(1H-1,2,4-triazol-1-ylmethyl)silane]: the pest or weed control at 100 ppm in data set [1] was 0%; with Erysiphe cichoracearum, 100%; with Venturia inaequalis, 50%; with Helminthosporium maydis it was 0%; in the data set with Cercospora arachidicola, 0%; in the data set on Pyricularia oryzae, 0%. Moreover, the pest or weed control at 100 ppm with Phytophthora infestans came to 0%. In addition, the pest or weed control at 2 g/kg seed in the data set with Pythium aphanadermatum [2] and in the data set on Pythium aphanadermatum [3] was 0% in each case. Also, the Phytotoxicity on cucumber entry in the data set with cucumber seedlings was “G”. In addition, in the data set on apple seedlings (100 ppm spray), the Phytotoxicity on apple entry is on record as “G”.

Regarding `C[Si](Cn1cncn1)(c1ccc(F)cc1)c1ccc(F)cc1` [bis(4-Fluorophenyl)methyl(1H,-1,2,4-triazol-1-ylmethyl)silane], the pest or weed control at 100 ppm in data set [1] worked out at 0%; in the data set on Erysiphe cichoracearum it was 100%; with Venturia inaequalis, 100%; in the data set on Helminthosporium maydis, 100%; with Cercospora arachidicola, 100%; in the data set on Rhizoctonia solani, 80%. For the same compound, the pest or weed control at 100 ppm with Pyricularia oryzae was 100%; with Phytophthora infestans, 0%. Also, the “% Control Bean Rust” value in the data set with Uromyces phaseoli (applied at 16 ppm) is recorded as 98%. The compound further gave an inhibition of growth at 100 µg/mL with Monilinia fructicola of 100%. Also, in the data set with 5 Phytophthora species, the “No. of 5 Phytophthora species controlled in vitro” value came to 0. Also, the pest or weed control at 2 g/kg seed with Pythium aphanadermatum [2] and in the data set on Pythium aphanadermatum [3] was 0% throughout. Further, the Phytotoxicity on cucumber entry with cucumber seedlings is reported as “G”.
